Values quoted from earlier work in patent US9583325B2, “System and method of delicate membrane condensed phase membrane introduction mass spectrometry (CP-MIMS)” (priority 2013, dated 2017).

Experiments:
[1] = SRC Physical Properties Database
[2] = for Log Kow: Table 1, SRC Physical Properties Database

CC(C)C1=CC2=CC[C@@H]3[C@](C)(CCC[C@@]3(C)C(=O)O)[C@H]2CC1 [Abietic Acid, Abietic acid]
Vapour pressure [1]: 4.3 × 10^−5 Pa
Log Kow [2]: 6.46

Cc1ccc(C)c(OCCCC(C)(C)C(=O)O)c1 [Gemfibrozil, 5-(2,5-dimethylphenoxy)-2,2-dimethyl-pentanoic acid]
Vapour pressure [1]: 8.1 × 10^−5 Pa
Log Kow [2]: 4.30

Oc1cc(Cl)ccc1Oc1ccc(Cl)cc1Cl [Triclosan, 5-chloro-2-(2,4-dichlorophenoxy)phenol]
Vapour pressure [1]: 8.6 × 10^−5 Pa
Log Kow [2]: 4.76

nonylphenol
Vapour pressure [1]: 1.15 Pa
Log Kow [2]: 5.76
log Kow ([2]; values given in text of Example 10): 6.04
